The source of these data is patent US9902726B2, “Pyridone-sulfone morphinan analogs as opioid receptor ligands” (Purdue Pharma L.P., priority 2013, dated 2018).

Some results are limits rather than exact numbers.

Assay [1] has as its target T1, μ-opioid receptor (Homo sapiens (Human), UniProt P35372). Nature of the assay: μ-opioid receptor [35S]GTPγS functional assay, HEK-293 or CHO cells. The assay is classed as biochemical. The conditions noted are these: for Emax: HEK-293 or CHO cells, relative to DAMGO. The procedure:
(§1) μ-Opioid Receptor Functional Assay Procedures: [^35S]GTPγS functional assays were conducted using freshly thawed μ-receptor membranes prepared in-house from a cell line expressing recombinant μ opioid receptor in a HEK-293, CHO, or U-2 OS cell background or purchased from a commercial source (Perkin Elmer, Shelton, Conn.). Assay reactions were prepared by sequentially adding the following reagents to binding buffer (100 mM NaCl, 10 mM MgCl2, 20 mM HEPES, pH 7.4) on ice (final concentrations indicated): membrane protein (0.026 mg/mL), saponin ([…]), GDP ([…]) and [^35S]GTPγS (0.20 nM; Perkin Elmer, Shelton, Conn.). The prepared membrane solution (190 μl/well) was transferred to 96-shallow well polypropylene plates containing 10 μl of 20× concentrated stock solutions of the agonist [D-Ala^2, N-methyl-Phe^4 Gly-ol^5]-enkephalin (DAMGO) prepared in dimethyl sulfoxide (DMSO). Plates were incubated for 30 min at about 25° C. with shaking. […] Data were analyzed using the sigmoidal dose-response curve fitting functions in GraphPad PRISM v. 3.0, or an in-house function for non-linear, sigmoidal dose-response curve-fitting. [^35S]GTPγS functional assays can also be conducted using freshly thawed μ-receptor membranes prepared from a cell line expressing recombinant opioid receptor in a CHO-K1 cell background.
(§2) μ-Opioid Receptor Functional Data: μ GTP EC50 is the concentration of a compound providing 50% of the maximal response for the compound at a μ-opioid receptor.
(§3) μ GTP Emax (%) is the maximal effect elicited by a compound relative to the effect elicited by DAMGO, a standard μ agonist. Generally, the μ GTP Emax (%) value measures the efficacy of a compound to treat or prevent pain or other Conditions.

The target of assay [2] is T2, κ opioid receptor (Homo sapiens (Human), UniProt P41145). Nature of the assay: κ-opioid receptor [35S]GTPγS functional assay, HEK-293 or CHO cells. The assay is classed as biochemical. The conditions noted are these: for Emax: HEK-293 or CHO cells, relative to U69,593. As to the method:
(§4) κ-Opioid Receptor Functional Assay Procedures: Functional [^35S]GTPγS binding assays were conducted as follows. κ opioid receptor membrane solution was prepared by sequentially adding final concentrations of 0.026 μg/μl κ membrane protein (in-house), 10 μg/mL saponin, 3 μM GDP and 0.20 nM [^35S]GTPγS to binding buffer (100 mM NaCl, 10 mM MgCl2, 20 mM HEPES, pH 7.4) on ice. The prepared membrane solution (190 μl/well) was transferred to 96-shallow well polypropylene plates containing 10 μl of 20× concentrated stock solutions of agonist prepared in DMSO. Plates were incubated for 30 min at a temperature of about 25° C. with shaking.
(§5) κ-Opioid Receptor Functional Data: κ GTP EC50 is the concentration of a compound providing 50% of the maximal response for the compound at a κ receptor.
(§6) κ GTP Emax (%) is the maximal effect elicited by a compound relative to the effect elicited by U69,593.
(Binding of GTPγS marks nucleotide exchange on a G protein.)

In assay [3] the target is recombinant human kappa opioid receptor (κ) (Homo sapiens (Human), UniProt P41145). Nature of the assay: κ-opioid receptor radioligand dose-displacement binding assay ([3H]-U69,593). The procedure:
κ-Opioid Receptor Binding Assay Procedures: Membranes from HEK-293 cells, CHO cells, or U-2 OS cells expressing the recombinant human kappa opioid receptor (κ) were prepared by lysing cells in ice cold hypotonic buffer (2.5 mM MgCl2, 50 mM HEPES, pH 7.4) (10 mL/10 cm dish) followed by homogenization with a tissue grinder/Teflon pestle. Membranes from a cell line naturally expressing kappa opioid receptor can also be used. Membranes were collected by centrifugation at 30,000×g for 15 min at 4° C. and pellets were resuspended in hypotonic buffer to a final concentration of 1-3 mg/mL. Protein concentrations were determined using the BioRad protein assay reagent with bovine serum albumen as standard. Aliquots of κ receptor membranes were stored at −80° C.
Radioligand dose displacement assays used 0.4 nM [^3H]-U69,593 (GE Healthcare, Piscataway, N.J.; 40 Ci/mmole) with 15 μg membrane protein (recombinant κ opioid receptor expressed in HEK 293 cells; in-house prep) in a final volume of 200 μl binding buffer (5% DMSO, 50 mM Trizma base, pH 7.4). Non-specific binding was determined in the presence of 10 μM unlabeled naloxone or U69,593. All reactions were performed in 96-well polypropylene plates for 1 hour at a temperature of about 25° C.

Assay [4] concerns the target T2, κ opioid receptor. Kind of assay: κ-opioid receptor [35S]GTPγS functional assay, U-2 OS cells. The assay is classed as biochemical. The conditions noted are these: for Emax: U-2 OS cells, relative to U69,593. The procedure:
as §4, §5, §6

For assay [5], the target named is T1, μ-opioid receptor. Nature of the assay: μ-opioid receptor [35S]GTPγS functional assay, U-2 OS cells. In kind it is biochemical. The conditions noted are these: for Emax: U-2 OS cells, relative to DAMGO. As to the method: as §1, §2, §3
Assay [6] addresses T1, μ-opioid receptor. Nature of the assay: μ-opioid receptor radioligand dose-displacement binding assay ([3H]-diprenorphine).
Method: Radioligand dose-displacement binding assays for μ-opioid receptors used 0.3 nM [^3H]-diprenorphine (Perkin Elmer, Shelton, Conn.), with 5 mg membrane protein/well in a final volume of 500 μl binding buffer (10 mM MgCl2, 1 mM EDTA, 5% DMSO, 50 mM HEPES, pH 7.4). Reactions were carried out in the absence or presence of increasing concentrations of unlabeled naloxone. All reactions were conducted in 96-deep well polypropylene plates for 2 hours at room temperature. Binding reactions were terminated by rapid filtration onto 96-well Unifilter GF/C filter plates (Perkin Elmer, Shelton, Conn.), presoaked in 0.5% polyethylenimine using a 96-well tissue harvester (Perkin Elmer, Shelton, Conn.) followed by performing three filtration washes with 500 μl of ice-cold binding buffer. Filter plates were subsequently dried at 50° C. for 2-3 hours. BetaScint scintillation cocktail (Perkin Elmer, Shelton, Conn.) was added (50 μl/well), and plates were counted using a Packard Top-Count for 1 min/well. The data were analyzed using the one-site competition curve fitting functions in GraphPad PRISM™ v.

By EC50 is commonly meant the concentration at which the effect is half-maximal. A low value points to a more potent agent. The term Emax denotes the maximal effect, on the per cent scale that the assay sets. Usually Ki stands for a dissociation constant, usually derived from enzyme kinetics or from competition with a known ligand. Take `CN1CC[C@]23Cc4[nH]c(=O)c(S(C)(=O)=O)cc4C[C@H]2[C@H]1Cc1ccc(O)cc13` [Compound 11, (6R,6aR,12aS)-2-hydroxy-15-methyl-9-(methylsulfonyl)-6,6a,7,12-tetrahydro-5H-6,12a-(epiminoethano)naphtho[2,1-g]quinolin-10(11H)-one]: the EC50 was found to be 0.259 ± 0.0535 µM at μ-opioid receptor [1] and 0.107 ± 0.0287 µM at κ opioid receptor [2]. Moreover, the Emax worked out at 20.7 ± 1.76% on μ-opioid receptor [1] and 16.7 ± 1.21% at κ opioid receptor [2]. For the same compound, in assay [3], the inhibition constant (Ki) was found to be 0.0131 ± 0.00227 µM.

Take `CN1CC[C@]23Cc4[nH]c(=O)c(S(C)(=O)=O)cc4C[C@@]2(O)[C@H]1Cc1ccc(O)cc13` [Compound 7, (6R,6aS,12aR)-2,6a-dihydroxy-15-methyl-9-(methylsulfonyl)-6a,7,11,12-tetrahydro-5H-6,12a-(epiminoethano)naphtho[2,1-g]quinolin-10(6H)-one]: on κ opioid receptor [4], the EC50 is 0.203 ± 0.0477 µM and the Emax worked out at 71.3 ± 3.33%. Moreover, at μ-opioid receptor [5], the EC50 was 0.148 ± 0.00621 µM and the Emax was determined as 68 ± 1.15%.

On μ-opioid receptor [1], `CS(=O)(=O)c1cc2c([nH]c1=O)C[C@]13CCN(CC4CC4)[C@H](Cc4ccc(O)cc41)[C@@H]3C2` [Compound 9, (6R,6aR,12aS)-15-(cyclopropylmethyl)-2-hydroxy-9-(methylsulfonyl)-6a,7,11,12-tetrahydro-5H-6,12a-(epiminoethano)naphtho[2,1-g]quinolin-10(6H)-one] yielded an EC50 above 20 µM and an Emax of 2.5%.

For `O=c1[nH]c2c(cc1S(=O)(=O)c1ccccc1)C[C@H]1[C@H]3Cc4ccc(O)cc4[C@@]1(CCN3CC1CC1)C2` [Compound 10, (6R,6aR,12aS)-15-(cyclopropylmethyl)-2-hydroxy-9-(phenylsulfonyl)-6a,7,11,12-tetrahydro-5H-6,12a-(epiminoethano)naphtho[2,1-g]quinolin-10(6H)-one], at μ-opioid receptor [1], the EC50 is above 20 µM and the Emax turned out to be 2%.

Take `CN1CC[C@]23Cc4[nH]c(=O)c(S(=O)(=O)c5ccccc5)cc4C[C@@]2(O)[C@H]1Cc1ccc(O)cc13` [Compound 8, (6R,6aS,12aR)-2,6a-dihydroxy-15-methyl-9-(phenylsulfonyl)-6a,7,11,12-tetrahydro-5H-6,12a-(epiminoethano)naphtho[2,1-g]quinolin-10(6H)-one]: on κ opioid receptor [4], the midpoint of the response, the EC50, lay at 0.0358 ± 0.00377 µM and the Emax is 82.3 ± 3.67%. Besides, on μ-opioid receptor [5], the EC50 was 0.0775 ± 0.0109 µM and the Emax was found to be 61.7 ± 1.67%. In addition, the Ki in assay [3] came to 0.0195 ± 0.00269 µM.

On to `CN1CC[C@]23Cc4[nH]c(=O)c(S(=O)(=O)c5ccccc5)cc4C[C@H]2[C@H]1Cc1ccc(O)cc13` [Compound 12, (6R,6aR,12aS)-2-hydroxy-15-methyl-9-(phenylsulfonyl)-6,6a,7,12-tetrahydro-5H-6,12a-(epiminoethano)naphtho[2,1-g]quinolin-10(11H)-one], for which, on μ-opioid receptor [1], the EC50 was 0.0831 ± 0.0241 µM and the maximum response (Emax) is 19.8 ± 2.63%. In addition, on κ opioid receptor [2], the EC50 turned out to be 0.0172 ± 0.00422 µM and the Emax was 17.2 ± 1.04%. Besides, the Ki in assay [3] was 0.00278 ± 0.00075 µM.

On to `O=c1[nH]c2c(cc1S(=O)(=O)c1ccccc1)C[C@@]1(O)[C@H]3Cc4ccc(O)cc4[C@@]1(CCN3CC1CC1)C2` [Compound 6, (6R,6aS,12aR)-15-(cyclopropylmethyl)-2,6a-dihydroxy-9-(phenylsulfonyl)-6a,7,11,12-tetrahydro-5H-6,12a-(epiminoethano)naphtho[2,1-g]quinolin-10(6H)-one], for which, at κ opioid receptor [4], the midpoint of the response, the EC50, lay at 0.00026 ± 5.5e-05 µM and the Emax was 33.2 ± 2.84%. On μ-opioid receptor [5], this compound yielded an EC50 above 20 µM and an Emax of 2%.

Regarding `CS(=O)(=O)c1cc2c([nH]c1=O)C[C@]13CCN(CC4CC4)[C@H](Cc4ccc(O)cc41)[C@]3(O)C2` [Compound 5, (6R,6aS,12aR)-15-(cyclopropylmethyl)-2,6a-dihydroxy-9-(methylsulfonyl)-6a,7,11,12-tetrahydro-5H-6,12a-(epiminoethano)naphtho[2,1-g]quinolin-10(6H)-one], the concentration for a half-maximal effect (EC50) was above 20 µM on μ-opioid receptor [1], 0.00127 ± 0.0003 µM on κ opioid receptor [2], 0.00085 ± 7.5e-05 µM at κ opioid receptor [4] and above 20 µM at μ-opioid receptor [5]. The Emax at μ-opioid receptor [1] came to 1%; at κ opioid receptor [2], 10.3 ± 0.67%; on κ opioid receptor [4], 55.7 ± 2.4%; on μ-opioid receptor [5], 2%. For the same compound, the inhibitory constant (Ki) at μ-opioid receptor [6] amounted to 0.00076 ± 0.00013 µM; in assay [3], 0.00036 ± 9.1e-05 µM.
